Measured values published in ChEMBL document CHEMBL4190187, “Discovery of pyrazolopyrimidine derivatives as novel inhibitors of ataxia telangiectasia and rad3 related protein (ATR)” (Bioorg Med Chem Lett, 2017).

Columns and labels:
[1] = molecular target: Serine/threonine-protein kinase PAK 1 (Homo sapiens) (UniProt Q13153); experiment: Inhibition of recombinant human PAK1 (150 to end residues) at 1 uM using RRRLSFAEPG as substrate after 40 mins in presence of [gamma-33P]ATP by scintillation counting method
[2] = molecular target: PI3K p110 beta/p85 alpha (Mus musculus) (UniProt P26450+Q8BTI9); experiment: Inhibition of recombinant full-length mouse p110b/p85a at 1 uM using phosphatidylinositol 4,5-bisphosphate as substrate after 40 mins in presence of [gamma-33P]ATP by scintillation counting method; type: protein-complex assay
[3] = molecular target: DNA-dependent protein kinase catalytic subunit (Homo sapiens) (UniProt P78527); experiment: Inhibition of recombinant full-length human DNA-PK at 1 uM using GST-cMyc-p53 as substrate after 40 mins in presence of [gamma-33P]ATP by scintillation counting method
[4] = molecular target: SRSF protein kinase 2 (Homo sapiens) (UniProt P78362); experiment: Inhibition of recombinant human SRPK2 (46 to end residues) at 1 uM using RSRSRSRSRSRSRSR as substrate after 40 mins in presence of [gamma-33P]ATP by scintillation counting method
[5] = molecular target: Serine/threonine-protein kinase ULK2 (Homo sapiens) (UniProt Q8IYT8); experiment: Inhibition of recombinant human ULK2 (1 to 306 residues) at 1 uM using casein as substrate after 40 mins in presence of [gamma-33P]ATP by scintillation counting method
Sequence of Serine/threonine-protein kinase ULK2 (Homo sapiens) (Q8IYT8 whole entry, the tested form may be a part): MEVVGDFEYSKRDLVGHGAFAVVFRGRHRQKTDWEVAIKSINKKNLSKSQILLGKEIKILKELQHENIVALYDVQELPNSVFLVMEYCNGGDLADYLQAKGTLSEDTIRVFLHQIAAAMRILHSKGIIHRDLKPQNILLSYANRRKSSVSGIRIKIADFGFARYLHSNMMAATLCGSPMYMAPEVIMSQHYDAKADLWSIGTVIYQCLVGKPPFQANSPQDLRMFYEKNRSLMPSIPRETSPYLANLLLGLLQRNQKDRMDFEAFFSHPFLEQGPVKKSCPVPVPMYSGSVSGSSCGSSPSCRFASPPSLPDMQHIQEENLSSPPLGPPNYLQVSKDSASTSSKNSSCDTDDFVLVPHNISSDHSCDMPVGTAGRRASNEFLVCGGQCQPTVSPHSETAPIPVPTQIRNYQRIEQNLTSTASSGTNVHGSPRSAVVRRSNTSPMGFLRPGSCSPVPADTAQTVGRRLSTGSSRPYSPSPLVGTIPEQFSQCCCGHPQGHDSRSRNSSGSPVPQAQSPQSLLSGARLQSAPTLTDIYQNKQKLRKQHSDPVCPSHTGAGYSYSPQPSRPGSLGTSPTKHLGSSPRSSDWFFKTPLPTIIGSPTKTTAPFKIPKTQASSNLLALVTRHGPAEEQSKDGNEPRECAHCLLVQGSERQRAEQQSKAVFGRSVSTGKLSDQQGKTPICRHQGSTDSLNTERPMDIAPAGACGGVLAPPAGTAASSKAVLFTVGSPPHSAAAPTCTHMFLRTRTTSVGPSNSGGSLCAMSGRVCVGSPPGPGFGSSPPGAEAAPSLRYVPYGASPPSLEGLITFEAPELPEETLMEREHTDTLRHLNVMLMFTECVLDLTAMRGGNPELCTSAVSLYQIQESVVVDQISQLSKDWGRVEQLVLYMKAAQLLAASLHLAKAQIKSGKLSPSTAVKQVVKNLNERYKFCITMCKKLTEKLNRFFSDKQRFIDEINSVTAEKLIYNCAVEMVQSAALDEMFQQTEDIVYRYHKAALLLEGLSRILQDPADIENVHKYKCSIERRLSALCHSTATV

[6] = molecular target: Phosphatidylinositol 3-kinase (Mus musculus) (UniProt P26450+P42337); experiment: Inhibition of recombinant full-length mouse PI3K p110a/p85a at 1 uM using phosphatidylinositol 4,5-bisphosphate as substrate after 40 mins in presence of [gamma-33P]ATP by scintillation counting method; type: protein assay
[7] = molecular target: Phosphorylase b kinase gamma catalytic chain, liver/testis isoform (Homo sapiens) (UniProt P15735); experiment: Inhibition of recombinant human PhKgamma2 (1 to 301 residues) at 1 uM using KKLNRTLSFAEPG as substrate after 40 mins in presence of [gamma-33P]ATP by scintillation counting method
[8] = molecular target: Vascular endothelial growth factor receptor 3 (Homo sapiens) (UniProt P35916); experiment: Inhibition of recombinant human Flt4 (800 to end residues) at 1 uM using GGEEEEYFELVKKKK as substrate after 40 mins in presence of [gamma-33P]ATP by scintillation counting method
[9] = molecular target: Calcium/calmodulin-dependent protein kinase type II subunit beta (Homo sapiens) (UniProt Q13554); experiment: Inhibition of recombinant human CAMK2beta (1 to 315 residues) at 1 uM using […] after 40 mins in presence of [gamma-33P]ATP by scintillation counting method
Sequence of Calcium/calmodulin-dependent protein kinase type II subunit beta (Homo sapiens) (Q13554 whole entry, the tested form may be a part): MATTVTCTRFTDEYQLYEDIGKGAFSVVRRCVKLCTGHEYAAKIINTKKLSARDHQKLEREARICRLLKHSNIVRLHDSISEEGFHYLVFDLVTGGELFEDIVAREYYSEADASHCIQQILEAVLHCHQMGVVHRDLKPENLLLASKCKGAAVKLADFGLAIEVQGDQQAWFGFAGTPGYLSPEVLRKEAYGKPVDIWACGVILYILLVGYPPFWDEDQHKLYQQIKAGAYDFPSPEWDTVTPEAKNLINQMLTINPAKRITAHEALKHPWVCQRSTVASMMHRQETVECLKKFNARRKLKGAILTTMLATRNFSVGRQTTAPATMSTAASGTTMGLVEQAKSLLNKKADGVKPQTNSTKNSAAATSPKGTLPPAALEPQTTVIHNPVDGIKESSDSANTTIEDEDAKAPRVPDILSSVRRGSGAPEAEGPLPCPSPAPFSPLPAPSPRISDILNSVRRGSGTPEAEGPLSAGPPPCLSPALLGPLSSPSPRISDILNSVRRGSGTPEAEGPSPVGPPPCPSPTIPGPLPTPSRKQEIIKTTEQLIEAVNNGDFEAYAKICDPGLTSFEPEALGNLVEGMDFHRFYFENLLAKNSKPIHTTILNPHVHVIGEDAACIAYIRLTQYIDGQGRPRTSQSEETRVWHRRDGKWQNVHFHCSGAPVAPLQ

[10] = molecular target: Tyrosine-protein kinase Lck (Homo sapiens) (UniProt P06239); experiment: Inhibition of recombinant full-length human Lck at 1 uM using KVEKIGEGTYGVVYK (Cdc2 peptide) as substrate after 40 mins in presence of [gamma-33P]ATP by scintillation counting method
[11] = molecular target: Serine/threonine-protein kinase PAK 5 (Homo sapiens) (UniProt Q9P286); experiment: Inhibition of recombinant human PAK5 (425 to end residues) at 1 uM using RRRLSFAEPG as substrate after 40 mins in presence of [gamma-33P]ATP by scintillation counting method
Saccharomyces cerevisiae = experiment: Inhibition of recombinant Saccharomyces cerevisiae CK1alpha (2 to 298 residues) at 1 uM using KRRRALS(p)VASLPGL as substrate after 40 mins in presence of [gamma-33P]ATP by scintillation counting method
[12] = molecular target: Mitogen-activated protein kinase 8 (Homo sapiens) (UniProt P45983); experiment: Inhibition of recombinant full-length human JNK1alpha1 at 1 uM using ATF2 as substrate after 40 mins in presence of [gamma-33P]ATP by scintillation counting method
[13] = molecular target: Fibroblast growth factor receptor 1 (Homo sapiens) (UniProt P11362); experiment: Inhibition of recombinant human FGFR1 (456 to 765 residues) at 1 uM using KKKSPGEYVNIEFG as substrate after 40 mins in presence of [gamma-33P]ATP by scintillation counting method
[14] = molecular target: Mitogen-activated protein kinase 13 (Homo sapiens) (UniProt O15264); experiment: Inhibition of recombinant full-length human SAPK4 at 1 uM using myelin basic protein as substrate after 40 mins in presence of [gamma-33P]ATP by scintillation counting method
Sequence of Mitogen-activated protein kinase 13 (Homo sapiens) (O15264 whole entry): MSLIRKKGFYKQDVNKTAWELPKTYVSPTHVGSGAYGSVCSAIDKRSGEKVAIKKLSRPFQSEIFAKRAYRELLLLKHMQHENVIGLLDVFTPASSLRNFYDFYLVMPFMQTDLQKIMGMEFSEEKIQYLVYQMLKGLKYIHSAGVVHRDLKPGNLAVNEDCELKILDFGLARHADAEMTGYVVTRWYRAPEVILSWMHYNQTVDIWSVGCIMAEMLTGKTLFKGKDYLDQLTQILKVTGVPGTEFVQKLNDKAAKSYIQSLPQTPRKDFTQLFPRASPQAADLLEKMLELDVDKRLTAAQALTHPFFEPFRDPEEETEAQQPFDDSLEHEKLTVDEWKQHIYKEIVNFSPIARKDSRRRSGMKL

[15] = molecular target: Mitogen-activated protein kinase 9 (Homo sapiens) (UniProt P45984); experiment: Inhibition of recombinant full-length human JNK2alpha2 at 1 uM using ATF2 as substrate after 40 mins in presence of [gamma-33P]ATP by scintillation counting method
[16] = molecular target: Tyrosine-protein kinase HCK (Homo sapiens) (UniProt P08631); experiment: Inhibition of recombinant human Hck (230 to 497 residues) at 1 uM using KVEKIGEGTYGVVYK (Cdc2 peptide) as substrate after 40 mins in presence of [gamma-33P]ATP by scintillation counting method
Sequence of Tyrosine-protein kinase HCK (Homo sapiens) (P08631 2-526 limits assumed): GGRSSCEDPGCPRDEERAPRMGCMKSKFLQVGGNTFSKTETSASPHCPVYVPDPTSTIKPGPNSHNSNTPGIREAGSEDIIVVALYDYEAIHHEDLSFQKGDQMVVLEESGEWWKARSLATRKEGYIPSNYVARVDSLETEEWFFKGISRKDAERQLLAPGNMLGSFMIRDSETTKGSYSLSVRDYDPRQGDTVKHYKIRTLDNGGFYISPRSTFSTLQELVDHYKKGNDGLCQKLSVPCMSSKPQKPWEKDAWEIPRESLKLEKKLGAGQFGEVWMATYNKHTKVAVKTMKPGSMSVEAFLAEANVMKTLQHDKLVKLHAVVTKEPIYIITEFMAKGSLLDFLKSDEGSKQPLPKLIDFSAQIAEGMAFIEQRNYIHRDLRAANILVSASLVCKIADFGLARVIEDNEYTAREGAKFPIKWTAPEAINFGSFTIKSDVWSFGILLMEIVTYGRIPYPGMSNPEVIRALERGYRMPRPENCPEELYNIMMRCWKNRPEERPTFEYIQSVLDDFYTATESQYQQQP

[17] = system: Tyrosine-protein kinase ABL1 (Homo sapiens), P00519 [M351T]; experiment: Inhibition of recombinant human Abl M351T mutant (27 to end residues) at 1 uM using EAIYAAPFAKKK as substrate after 40 mins in presence of [gamma-33P]ATP by scintillation counting method
[18] = molecular target: Serine/threonine-protein kinase tousled-like 2 (Homo sapiens) (UniProt Q86UE8); experiment: Inhibition of recombinant human TLK2 (387 to end residues) at 1 uM using casein as substrate after 40 mins in presence of [gamma-33P]ATP by scintillation counting method
Sequence of Serine/threonine-protein kinase tousled-like 2 (Homo sapiens) (Q86UE8 whole entry, looked up): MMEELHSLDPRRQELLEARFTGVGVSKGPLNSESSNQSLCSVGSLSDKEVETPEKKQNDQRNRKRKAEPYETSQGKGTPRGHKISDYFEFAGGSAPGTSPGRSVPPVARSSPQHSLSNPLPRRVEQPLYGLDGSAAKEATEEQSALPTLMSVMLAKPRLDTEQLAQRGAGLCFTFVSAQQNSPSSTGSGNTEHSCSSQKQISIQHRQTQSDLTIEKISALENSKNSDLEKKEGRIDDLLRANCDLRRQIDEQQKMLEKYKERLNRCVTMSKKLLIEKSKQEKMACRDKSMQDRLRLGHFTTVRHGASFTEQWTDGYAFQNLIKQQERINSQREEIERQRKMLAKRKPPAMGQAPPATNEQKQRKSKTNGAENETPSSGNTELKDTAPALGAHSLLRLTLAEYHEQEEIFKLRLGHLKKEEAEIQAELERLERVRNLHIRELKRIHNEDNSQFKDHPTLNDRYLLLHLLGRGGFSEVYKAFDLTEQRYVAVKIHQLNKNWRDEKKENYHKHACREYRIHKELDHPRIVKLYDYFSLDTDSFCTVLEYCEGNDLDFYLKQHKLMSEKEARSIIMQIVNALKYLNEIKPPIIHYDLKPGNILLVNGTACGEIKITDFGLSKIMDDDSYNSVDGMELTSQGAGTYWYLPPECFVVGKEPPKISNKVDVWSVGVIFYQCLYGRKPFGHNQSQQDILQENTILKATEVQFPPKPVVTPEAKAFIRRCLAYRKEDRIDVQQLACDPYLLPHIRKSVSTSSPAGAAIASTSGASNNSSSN

[19] = system: Tyrosine-protein kinase ABL1 (Homo sapiens), P00519 [H396P]; experiment: Inhibition of recombinant human Abl H396P mutant (27 to end residues) at 1 uM using EAIYAAPFAKKK as substrate after 40 mins in presence of [gamma-33P]ATP by scintillation counting method
[20] = molecular target: Serine/threonine-protein kinase 10 (Homo sapiens) (UniProt O94804); experiment: Inhibition of recombinant human LOK (1 to 348 residues) at 1 uM using RLGRDKYKTLRQIRQ as substrate after 40 mins in presence of [gamma-33P]ATP by scintillation counting method
[21] = molecular target: Serine/threonine-protein kinase TAO3 (Homo sapiens) (UniProt Q9H2K8); experiment: Inhibition of recombinant human TAO3 (1 to 411 residues) at 1 uM using myelin basic protein as substrate after 40 mins in presence of [gamma-33P]ATP by scintillation counting method
Sequence of Serine/threonine-protein kinase TAO3 (Homo sapiens) (Q9H2K8 whole entry, the tested form may be a part): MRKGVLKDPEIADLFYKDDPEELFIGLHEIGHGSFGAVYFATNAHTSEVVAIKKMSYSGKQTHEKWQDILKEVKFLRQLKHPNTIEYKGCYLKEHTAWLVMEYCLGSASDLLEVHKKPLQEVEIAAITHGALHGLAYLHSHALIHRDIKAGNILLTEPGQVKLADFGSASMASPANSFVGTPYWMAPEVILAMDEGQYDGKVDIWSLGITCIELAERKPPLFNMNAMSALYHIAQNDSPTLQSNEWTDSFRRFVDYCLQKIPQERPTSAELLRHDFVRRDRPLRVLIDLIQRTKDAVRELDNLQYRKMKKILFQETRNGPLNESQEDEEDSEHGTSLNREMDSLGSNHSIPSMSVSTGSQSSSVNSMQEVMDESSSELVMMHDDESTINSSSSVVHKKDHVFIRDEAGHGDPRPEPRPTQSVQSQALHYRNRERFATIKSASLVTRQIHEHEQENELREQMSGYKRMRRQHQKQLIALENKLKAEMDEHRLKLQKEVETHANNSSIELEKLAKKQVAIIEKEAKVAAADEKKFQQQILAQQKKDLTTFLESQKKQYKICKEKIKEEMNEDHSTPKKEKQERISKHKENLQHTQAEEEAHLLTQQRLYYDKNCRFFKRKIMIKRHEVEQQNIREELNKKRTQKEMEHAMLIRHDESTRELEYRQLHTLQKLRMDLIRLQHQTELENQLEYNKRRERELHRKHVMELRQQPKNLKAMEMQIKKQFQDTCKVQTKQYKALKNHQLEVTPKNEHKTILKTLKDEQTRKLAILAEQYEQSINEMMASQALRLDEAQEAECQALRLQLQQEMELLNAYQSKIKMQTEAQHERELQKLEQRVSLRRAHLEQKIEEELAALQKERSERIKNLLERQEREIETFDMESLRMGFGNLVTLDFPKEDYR

[22] = molecular target: Fibroblast growth factor receptor 3 (Homo sapiens) (UniProt P22607); experiment: Inhibition of recombinant human FGFR3 (447 to 761 residues) at 1 uM using poly(Glu,Tyr) 4:1 as substrate after 40 mins in presence of [gamma-33P]ATP by scintillation counting method
[23] = molecular target: Protein kinase C epsilon type (Homo sapiens) (UniProt Q02156); experiment: Inhibition of recombinant human PKCepsilon (2 to end residues) at 1 uM using ERMRPRKRQGSVRRRV as substrate after 40 mins in presence of [gamma-33P]ATP by scintillation counting method
Sequence of Protein kinase C epsilon type (Homo sapiens) (Q02156 whole entry): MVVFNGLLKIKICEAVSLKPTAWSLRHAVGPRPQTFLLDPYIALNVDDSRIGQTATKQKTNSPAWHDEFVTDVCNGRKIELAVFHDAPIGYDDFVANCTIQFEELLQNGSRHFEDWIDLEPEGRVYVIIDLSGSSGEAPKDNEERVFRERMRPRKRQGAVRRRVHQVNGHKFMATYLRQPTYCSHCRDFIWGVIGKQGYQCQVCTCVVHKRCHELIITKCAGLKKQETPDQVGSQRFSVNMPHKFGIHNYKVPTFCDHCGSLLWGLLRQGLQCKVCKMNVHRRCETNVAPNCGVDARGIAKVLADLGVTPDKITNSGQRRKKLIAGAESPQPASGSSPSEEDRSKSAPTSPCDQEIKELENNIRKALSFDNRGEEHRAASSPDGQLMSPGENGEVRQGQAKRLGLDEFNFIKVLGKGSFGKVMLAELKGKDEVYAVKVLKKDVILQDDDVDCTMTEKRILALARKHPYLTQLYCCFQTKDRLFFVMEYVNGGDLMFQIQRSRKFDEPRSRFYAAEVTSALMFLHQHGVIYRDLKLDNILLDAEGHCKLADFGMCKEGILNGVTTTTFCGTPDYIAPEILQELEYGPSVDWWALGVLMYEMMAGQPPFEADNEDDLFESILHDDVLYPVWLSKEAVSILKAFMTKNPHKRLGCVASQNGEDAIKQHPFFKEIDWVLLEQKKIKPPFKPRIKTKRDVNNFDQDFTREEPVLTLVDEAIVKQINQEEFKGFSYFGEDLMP

Q: For `CS(=O)(=O)c1ccc(-n2nc(-c3cnc4[nH]ccc4c3)c3c(N)ncnc32)cc1`, which inhibition [1] is on record?
A: 4%

Q: What about the inhibition [2] of the same compound?
A: 0%

Q: And the inhibition [3]?
A: 59%

Q: And the inhibition [4]?
A: 0%

Q: What about the inhibition [5] of the same compound?
A: 5%

Q: And the inhibition [6]?
A: 10%

Q: What about the inhibition [7] of the same compound?
A: 16%

Q: And the inhibition [8]?
A: 91%

Q: And the inhibition [9]?
A: -4%

Q: And the inhibition [10]?
A: 55%

Q: And the inhibition [11]?
A: 20%

Q: What about the inhibition (Saccharomyces cerevisiae) of the same compound?
A: 38%

Q: What about the inhibition [12] of the same compound?
A: 1%

Q: What about the inhibition [13] of the same compound?
A: 63%

Q: What about the inhibition [14] of the same compound?
A: -5%

Q: What about the inhibition [15] of the same compound?
A: -6%

Q: And the inhibition [16]?
A: 50%

Q: And the inhibition [17]?
A: 77%

Q: And the inhibition [18]?
A: 0%

Q: And the inhibition [19]?
A: 79%

Q: What about the inhibition [20] of the same compound?
A: -5%

Q: What about the inhibition [21] of the same compound?
A: 5%

Q: And the inhibition [22]?
A: 5%

Q: And the inhibition [23]?
A: 2%
